# According to article PMC10590383, “Repurposing conformational changes in ANL superfamily enzymes to rapidly generate biosensors for organic and amino acids” (Nature Communications, 2023):
# Tests used:
# [1] = Dose–response curve of purified […]s with S-β-phenylalanine; type: biochemical
# Method: (§1) Fig. 4 Engineering ligand specificity of GrsA-PheA for generating […]s. a The selectivity-conferring code of Phe and Leu A domains. b–f Dose–response curve of purified […]s with increasing concentrations of ligands in 100 mM Tris-HCl buffer (pH=7.5). All data shown are means ± S.D. (n = 3 biologically independent samples). g A series of […] reactions was tested to show the […]’s specificity with 20 proteinogenic amino acids. The values on the heatmap represent the ΔF/F0 value normalized to each […]’s maximal ΔF/F0 value ((ΔF/F0)/maximal ΔF/F0). The concentrations of 20 amino acids were 100 μM. The color indicates the average value of three independent biological replicates after 15 min. All data shown are means ± S.D. (n = 3 biologically independent samples). Source data are provided as a Source data file.
# (§2) The study conducted dose–response curve, substrate specificity, and fluorescent spectrum analyses in 100-mM Tris buffer (pH = 7.5), while pH stability experiments were performed in 100-mM Tris buffer at three different pH values (6.5, 7.5, and 8.5) at room temperature. […] protein at a concentration of 0.75 μM, various small molecule concentrations, 1 mM ATP, and 2.5 mM MgCl2 were used in the experiments. Fluorescent signals were detected using a Microplate Reader (Synergy H4, Bio Tek) at an excitation/emission wavelength of 460 nm/510 nm or 480 nm/510 nm. The dose-response curve was determined immediately after the addition of the analyte. The total duration of the measurement was 15 min, with readings taken at one-minute intervals. The dose-response curve was plotted using the fluorescence values obtained after achieving stability in the fluorescence signal. The dose-response curves were fitted using the logistic model LOGISTIC5 available in Origin 2021, which could provide a more adequate fit to asymmetric dose-response data[62],[63]. Excitation spectra were scanned from 300 to 540 nm with a step size of 5 nm, and the emission wavelength was set to 560 nm. Emission spectra were scanned from 470 to 700 nm with a step size of 5 nm, and the excitation wavelength was set to 450 nm. The thermal stability of […] was analyzed using the UNcle multifunctional protein stability analysis system. Measurements were performed in 20 mM MOPS buffer with 2 mM DTT at a sample concentration of 1 mg/mL. Absolute fluorescence quantum yields were measured using an absolute photoluminescence quantum yield spectrometer (FS5, Edinburgh).
# [2] = Substrate (ligand) specificity of […]s; type: biochemical; details: Supplementary Fig. 3 c; substrate specificity
# Method: as §1
# Ligand specificity is an important biosensors feature. Generally, the NRPS A domains have high specificity for their substrates because they are the first “gatekeeper” of NRPSs and ensure that the correct monomers are activated and thioesterified[32],[33]. Therefore, we speculated that this property would be inherited by our […]s because the ligand-binding pockets were unchanged during the […] creation process. Twenty proteinogenic amino acids were used to test the ligand specificity of […]s. […] We also investigated the dependence of […]s on Mg^2+ and ATP (Supplementary Fig. 4). […] This phenomenon corroborates with the distinct conformational changes observed in Hinge A of Nt4CL2 (Mg^2++ATP) (PDB ID: 5BSM) and Nt4CL2 (Coumaroyl-AMP) (PDB ID: 5BST) reported in the literature (Supplementary Fig. 4k), where the direction of motion in hinge A differs. […] During the determination of quantum yield, we observed that the absolute quantum yield of the […] variants ranged from 0.3 to 0.6 upon addition of the respective substrates, which show no significant difference with that reported in literature. The specific values are provided in Supplementary Table 2.
# as §2
# GECFINDER-Phe3 = target: T1, GECFINDER-Phe3 (Aneurinibacillus migulanus, UniProt P0C061); assay: Fluorescence dose-response of purified cpEGFP sensors (0.75 uM) in 100 mM Tris-HCl pH 7.5, room temperature, 1 mM ATP, 2.5 mM MgCl2; excitation 400, 460 or 480 nm by sensor, emission 510 nm; logistic five-parameter fit.; type: biochemical; details: n = 3
# T1 construct: gene grsA; GrsA-PheA-PCP; cpEGFP inserted in hinge B, linkers VF-QS
# T1 sequence (P0C061 1-617): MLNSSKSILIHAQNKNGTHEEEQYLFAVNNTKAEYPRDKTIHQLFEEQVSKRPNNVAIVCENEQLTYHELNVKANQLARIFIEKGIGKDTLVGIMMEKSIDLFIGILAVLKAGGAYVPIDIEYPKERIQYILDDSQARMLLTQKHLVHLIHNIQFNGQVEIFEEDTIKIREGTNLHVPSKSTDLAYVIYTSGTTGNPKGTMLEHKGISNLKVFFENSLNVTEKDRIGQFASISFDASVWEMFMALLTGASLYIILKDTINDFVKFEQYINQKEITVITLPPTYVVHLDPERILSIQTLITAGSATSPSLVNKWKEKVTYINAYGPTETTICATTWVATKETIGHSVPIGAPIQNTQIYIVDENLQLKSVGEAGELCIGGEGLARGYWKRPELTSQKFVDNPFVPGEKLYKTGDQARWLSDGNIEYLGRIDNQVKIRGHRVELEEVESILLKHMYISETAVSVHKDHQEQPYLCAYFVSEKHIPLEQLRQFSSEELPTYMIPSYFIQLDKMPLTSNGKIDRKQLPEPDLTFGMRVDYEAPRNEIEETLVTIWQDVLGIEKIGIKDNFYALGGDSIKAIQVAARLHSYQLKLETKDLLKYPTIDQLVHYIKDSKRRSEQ
# Method: (§3) Fig. 3 Dose–response curves and fluorescence spectrums of […]s. a, c, e, g, i, k Dose–response curve of purified […]s with increasing concentrations of ligand in 100 mM Tris-HCl buffer (pH=7.5). The normalized ΔF/F0 value increased after ligand binding. All data shown are mean ± S.D. (n = 3 biologically independent samples). b, d, f, h, j, l The fluorescence spectra of […]s changed as the ligand concentration increased. All data shown are mean ± S.D. (n = 3 biologically independent samples). Source data are provided as a Source data file.
# as §2
# GECFINDER-Tyr = target: T2, GECFINDER-Tyr (Aneurinibacillus migulanus, UniProt P0C061, W239S); assay: Fluorescence dose-response of purified binding-pocket-engineered sensors (0.75 uM) in 100 mM Tris-HCl pH 7.5, room temperature, 1 mM ATP, 2.5 mM MgCl2, excitation 460 or 480 nm, emission 510 nm; logistic five-parameter fit.; type: biochemical; details: n = 3
# T2 construct: gene grsA
# Method: as §1, §2
# GECFINDER-Glu = target: T3, GECFINDER-Glu (Bacillus subtilis, UniProt P39845); assay: Fluorescence dose-response of purified cpEGFP sensors (0.75 uM) in 100 mM Tris-HCl pH 7.5, room temperature, 1 mM ATP, 2.5 mM MgCl2; excitation 400, 460 or 480 nm by sensor, emission 510 nm; logistic five-parameter fit.; type: biochemical; details: n = 3
# T3 construct: gene ppsA; PpsA-GluA-PCP; cpEGFP inserted, linkers HS-WL
# Method: as §3, §2
# [3] = Dose–response curve of purified […] with glutamic acid; type: biochemical; design: key: normalized ΔF/F0 (fluorescence change relative to baseline F0)
# Method: as §3, §2
# [4] = Fluorescence spectra / excitation wavelength scan of […]s; type: physicochemical; details: Wavelength 300 nm
# Method: Fig. 3 Dose–response curves and fluorescence spectrums of […]s. a, c, e, g, i, k Dose–response curve of purified […]s with increasing concentrations of ligand in 100 mM Tris-HCl buffer (pH=7.5). […] All data shown are mean ± S.D. (n = 3 biologically independent samples). Source data are provided as a Source data file.
# as §2
smiles,measurement,setting,value
N[C@@H](CC(=O)O)c1ccccc1 [S-β-Phe],"AVE, dose-response Fig. 4 b",[1]; substrate S-β-Phe 0.0001 μM,-0.0002792
same,"AVE, dose-response Fig. 4 b",[1]; substrate S-β-Phe 0.001 μM,-0.0008239
same,"AVE, dose-response Fig. 4 b",[1]; substrate S-β-Phe 0.01 μM,-0.003663
same,"AVE, dose-response Fig. 4 b",[1]; substrate S-β-Phe 0.1 μM,-0.01739
same,"AVE, dose-response Fig. 4 b",[1]; substrate S-β-Phe 1 μM,0.02113
same,"AVE, dose-response Fig. 4 b",[1]; substrate S-β-Phe 10 μM,0.3498
same,"AVE, dose-response Fig. 4 b",[1]; substrate S-β-Phe 50 μM,0.6956
same,"AVE, dose-response Fig. 4 b",[1]; substrate S-β-Phe 100 μM,0.8621
same,"AVE, dose-response Fig. 4 b",[1]; substrate S-β-Phe 500 μM,0.9305
same,"AVE, dose-response Fig. 4 b",[1]; substrate S-β-Phe 1000 μM,0.8832
same,"AVE, dose-response Fig. 4 b",[1]; substrate S-β-Phe 5000 μM,0.7695
same,"AVE, dose-response Fig. 4 b",[1]; substrate S-β-Phe 10000 μM,0.7514
same,"AVE, dose-response Fig. 4 f",[1]; substrate S-β-Phe 0.0001 μM,-0.0001186
same,"AVE, dose-response Fig. 4 f",[1]; substrate S-β-Phe 0.001 μM,-0.005617
same,"AVE, dose-response Fig. 4 f",[1]; substrate S-β-Phe 0.01 μM,0.008482
same,"AVE, dose-response Fig. 4 f",[1]; substrate S-β-Phe 0.1 μM,0.09012
same,"AVE, dose-response Fig. 4 f",[1]; substrate S-β-Phe 1 μM,0.4944
same,"AVE, dose-response Fig. 4 f",[1]; substrate S-β-Phe 10 μM,1.228
same,"AVE, dose-response Fig. 4 f",[1]; substrate S-β-Phe 50 μM,1.751
same,"AVE, dose-response Fig. 4 f",[1]; substrate S-β-Phe 100 μM,1.939
same,"AVE, dose-response Fig. 4 f",[1]; substrate S-β-Phe 500 μM,2.2005
same,"AVE, dose-response Fig. 4 f",[1]; substrate S-β-Phe 1000 μM,2.208
same,"AVE, dose-response Fig. 4 f",[1]; substrate S-β-Phe 5000 μM,2.26
same,"AVE, dose-response Fig. 4 f",[1]; substrate S-β-Phe 10000 μM,2.258
same,"fluorescence response of GECFINDER to each substrate, AVE of 3 repeats",[2],2.126
"N[C@@H](Cc1ccc(O)cc1)C(=O)O [Tyr, tyrosine]",EC50,GECFINDER-Phe3,225 ± 17.9 µM
same,EC50,GECFINDER-Tyr,89.8 ± 6.71 µM
"N[C@@H](CCC(=O)O)C(=O)O [Glu, glutamic acid]",EC50,GECFINDER-Glu,42.9 ± 3.93 µM
N[C@@H](CCC(=O)O)C(=O)O [Glu],"Dose-response, AVE of Repeat 1-3 (Fig. 3 e)",[3]; Glu 0.1 μM,0
same,"Dose-response, AVE of Repeat 1-3 (Fig. 3 e)",[3]; Glu 1 μM,0.02632
same,"Dose-response, AVE of Repeat 1-3 (Fig. 3 e)",[3]; Glu 2 μM,0.0378
same,"Dose-response, AVE of Repeat 1-3 (Fig. 3 e)",[3]; Glu 5 μM,0.1147
same,"Dose-response, AVE of Repeat 1-3 (Fig. 3 e)",[3]; Glu 10 μM,0.1961
same,"Dose-response, AVE of Repeat 1-3 (Fig. 3 e)",[3]; Glu 20 μM,0.322
same,"Dose-response, AVE of Repeat 1-3 (Fig. 3 e)",[3]; Glu 50 μM,0.5379
same,"Dose-response, AVE of Repeat 1-3 (Fig. 3 e)",[3]; Glu 100 μM,0.6984
same,"Dose-response, AVE of Repeat 1-3 (Fig. 3 e)",[3]; Glu 200 μM,0.8758
same,"Dose-response, AVE of Repeat 1-3 (Fig. 3 e)",[3]; Glu 500 μM,1.002
same,"Dose-response, AVE of Repeat 1-3 (Fig. 3 e)",[3]; Glu 750 μM,0.9874
same,"Dose-response, AVE of Repeat 1-3 (Fig. 3 e)",[3]; Glu 1000 μM,0.9487
same,"fluorescence response of GECFINDER to each substrate, AVE of 3 repeats",[2],-0.007518
same,"Wavelength scan, AVE of Repeat 1-3 (Fig. 3 f)",[4]; 0.1 μM Glu,86.3333
same,"Wavelength scan, AVE of Repeat 1-3 (Fig. 3 f)",[4]; 5 μM Glu,106
same,"Wavelength scan, AVE of Repeat 1-3 (Fig. 3 f)",[4]; 500 μM Glu,120.667
